Results: US6551591B1, “Antibiotics from microbispora” (priority 2001, dated 2003)
In brackets after ≈: the same amount, converted by molar mass. Read-outs that look alike come from different tables or passages of the source.

Assays:
[1] = test system: MRSA (methicillin resistance Staphylococcus aureus) strains; assay: MIC50/MIC90 against a collection of genotypically characterized S. aureus isolates; type: cell-based
Procedure: (§1) The antibacterial activity of MF-BA-1768α1 and MF-BA-1768β1 were determined against a spectrum of bacterial strains using a broth microdilution assay performed as recommended by the NCCLS (NCCLS Document M7-A4, Vol 17 No.2). With the exception of Streptococci spp. and H. influenzae, the assay was performed in Cation Adjusted Mueller-Hinton Broth (CAMHB). For the Streptococci spp., CAMHB+2-5% Laked Horse Blood (REMEL) was used. For H. influenzae, Haemophilus Test Medium (REMEL) containing 2% Fildes Enrichment was used. The final bacterial inoculum was 5×10^5 CFU/ml in a final assay volume of 100 μl. Microtiter plates containing the test samples and the respective bacterial inoculum were incubated for 24 hours at 35° C. with the exception of E. coli plates, which were incubated for 20 hours at 35° C. Upon completion of incubation, the plates were read using a microtiter plate reader (Molecular Devices) at 650 nm as well as by visual observation using a microtiter plate reading mirror. […]
(§2) The antibacterial activity of MF-BA-1768β1 was further evaluated side-by-side with 9 reference antibiotics against a collection of genotypically well-characterized isolates of Staphylococcus aureus. These included 64 MRSA (methicillin resistance Staphylococcus aureus) strains and 19 MSSA (methicillin sensitive Staphylococcus aureus) strains representing 57 staphylococcal protein A genotypes and 22 coagulase A genotypes. The most common protein A genotypes found in the USA were represented by more than one isolate.

[2] = test system: MSSA (methicillin sensitive Staphylococcus aureus) strains; assay: as above; type: cell-based
Procedure: as §1, §2

[3] = Staphylococcus aureus, MRSA (64 strains), read-out: MIC50
[4] = Staphylococcus aureus, MRSA (64 strains), read-out: MIC90
[5] = Staphylococcus aureus, MSSA (19 strains), read-out: MIC50
[6] = Staphylococcus aureus, MSSA (19 strains), read-out: MIC90

`CO/N=C(\C(=O)N[C@@H]1C(=O)N2C(C(=O)O)=C(COC(C)=O)CS[C@H]12)c1csc(N)n1` [Cefotaxime] showed an MIC50 [1, 3] of 512 µg/mL (≈ 1120 µM), an MIC90 [1, 4] of over 512 µg/mL and an MIC50 [2, 5] of 2 µg/mL (≈ 4.39 µM). The MIC90 [2, 6] was 256 µg/mL (≈ 562 µM).

For `C[C@@H](O)[C@H]1C(=O)N2C(C(=O)O)=C(SCCN=CN)C[C@H]12` [Imipenem], the MIC50 [1, 3] was 8 µg/mL (≈ 26.7 µM), the MIC90 [1, 4] was 128 µg/mL (≈ 428 µM) and the MIC50 [2, 5] was at most 0.5 µg/mL. The MIC90 [2, 6] was 4 µg/mL (≈ 13.4 µM).

Work on `CCOc1ccc2ccccc2c1C(=O)N[C@@H]1C(=O)N2[C@@H]1SC(C)(C)[C@@H]2C(=O)O` [Nafcillin] yielded an MIC50 [1, 3] of 64 µg/mL (≈ 154 µM), an MIC90 [1, 4] of 256 µg/mL (≈ 618 µM) and an MIC50 [2, 5] of at most 1 µg/mL. For the same compound, the MIC90 [2, 6] was 16 µg/mL (≈ 38.6 µM).

`CC1COc2c(N3CCN(C)CC3)c(F)cc3c(=O)c(C(=O)O)cn1c23` (stereo not drawn) [Ofloxacin] showed an MIC50 [1, 3] of 0.5 µg/mL (≈ 1.38 µM), an MIC90 [1, 4] of 32 µg/mL (≈ 88.6 µM) and an MIC50 [2, 5] of 0.5 µg/mL (≈ 1.38 µM). The MIC90 [2, 6] was 32 µg/mL (≈ 88.6 µM).

`Cc1onc(-c2ccccc2)c1C(=O)N[C@@H]1C(=O)N2[C@@H]1SC(C)(C)[C@@H]2C(=O)O` [Oxacillin] showed an MIC50 [1, 3] of 128 µg/mL (≈ 319 µM), an MIC90 [1, 4] of 512 µg/mL (≈ 1280 µM) and an MIC50 [2, 5] of at most 1 µg/mL. It also gave an MIC90 [2, 6] of 64 µg/mL (≈ 159 µM).

`CO[C@H]1/C=C/O[C@@]2(C)Oc3c(C)c(O)c4c(O)c(c(/C=N/N5CCN(C)CC5)c(O)c4c3C2=O)NC(=O)/C(C)=C\C=C\[C@H](C)[C@H](O)[C@@H](C)[C@@H](O)[C@@H](C)[C@H](OC(C)=O)[C@@H]1C` [Rifampicin] gave an MIC50 [1, 3] of at most 0.0625 µg/mL, an MIC90 [1, 4] of over 32 µg/mL and an MIC50 [2, 5] of at most 0.0625 µg/mL. It also gave an MIC90 [2, 6] of at most 0.0625 µg/mL.

`CN(C)[C@@H]1C(O)=C(C(N)=O)C(=O)[C@@]2(O)C(O)=C3C(=O)c4c(O)cccc4[C@@](C)(O)[C@H]3C[C@@H]12` [Tetracycline] showed an MIC50 [1, 3] of 0.25 µg/mL (≈ 0.563 µM), an MIC90 [1, 4] of over 32 µg/mL and an MIC50 [2, 5] of 0.25 µg/mL (≈ 0.563 µM). The MIC90 [2, 6] was 32 µg/mL (≈ 72 µM).

`CN[C@H](CC(C)C)C(=O)N[C@H]1C(=O)N[C@@H](CC(N)=O)C(=O)N[C@H]2C(=O)N[C@H]3C(=O)N[C@H](C(=O)N[C@H](C(=O)O)c4cc(O)cc(O)c4-c4cc3ccc4O)[C@H](O)c3ccc(c(Cl)c3)Oc3cc2cc(c3O[C@@H]2O[C@H](CO)[C@@H](O)[C@H](O)[C@H]2O[C@H]2C[C@](C)(N)[C@H](O)[C@H](C)O2)Oc2ccc(cc2Cl)[C@H]1O` [Vancomycin] gave an MIC50 ([1]; Staphylococcus aureus, MRSA) of 0.5 µg/mL (≈ 0.345 µM), an MIC90 ([1]; Staphylococcus aureus, MRSA) of 1 µg/mL (≈ 0.69 µM) and an MIC50 ([2]; Staphylococcus aureus, MSSA) of 0.5 µg/mL (≈ 0.345 µM). It also gave an MIC90 ([2]; Staphylococcus aureus, MSSA) of 1 µg/mL (≈ 0.69 µM).

Work on Gentamicin yielded an MIC50 ([1]; MRSA (64 strains)) of 1 µg/mL, an MIC90 ([1]; MRSA (64 strains)) of over 32 µg/mL and an MIC50 ([2]; MSSA (19 strains)) of 0.5 µg/mL. The MIC90 ([2]; MSSA (19 strains)) was 32 µg/mL.
